“Also recorded” adds a separate entry of the source. Counter-ions that a name gives are not always drawn.
Legend:
[1] = system: NIH mice; assay: Antitussive test of Naringin, spraying with concentrated ammonia liquor (Example 28); type: in vivo; details: for R Value: EDT50 of the treatment / EDT50 of the control x 100%; for EDT50: mice, intra-gastrointestinal, ammonia spray 1 hour after dosing
Excerpt: 1.Animals: As the stock animals, totally 130 NIH mice, male, each weighed 18.2~21.7g within ordinary standard. Weigh and number each mice accurately first, then pick out the 120 healthy ones who weighed in range from 18.5~21.0g. Ranked in weigh, they were divided into 8 groups in random with each 15. Set up reference groups of negative and positive, and sample groups of high-dose, mid-dose, low-dose Naringin and sodium Naringinate.
• 1) Blank control group: physiological saline, 0.9% NaCl; • 2) Positive control group: 30 mg dextromethorphan hydrobromide was weighed into a 20ml volumetric flask, and physiological saline was accurately added to the volume to obtain the solution for positive control at concentration of 5mg/ml° • 3) Group of low-dose sample Naringin: Proper amount of Naringin was weighed into a suitable volumetric flask, and physiological saline was added to the volume to obtain the solution at concentration of 0.5mg/ml. • 4) Group of mid-dose sample Naringin: Proper amount of Naringin was weighed into a suitable volumetric flask, and physiological saline was added to the volume to obtain the solution at concentration of 1.5mg/ml. • 5) Group of high-dose sample Naringin: Proper amount of Naringin was weighed into a suitable volumetric flask, and physiological saline was added to the volume to obtain the solution at concentration of 4.5mg/ml. • 6) Group of low-dose sample sodium Naringinate: Proper amount of sodium Naringin was weighed into a suitable volumetric flask, and physiological saline was added to the volume to obtain the solution at concentration of 0.5mg/ml. • 7) Group of mid-dose sample sodium Naringinate: Proper amount of sodium Naringin was weighed into a suitable volumetric flask, and physiological saline was added to the volume to obtain the solution at concentration of 1.5mg/ml. • 8) Group of high-dose sample sodium Naringinate: Proper amount of sodium Naringin was weighed into a suitable volumetric flask, and physiological saline was added to the volume to obtain the solution at concentration of4.5mg/ml.
One hour after intra-gastrointestinal administering for the mice, spray with concentrated ammonia liquor for certain intervals. Immediately the spraying was over, put away the mice outside and observe the tussive action. Mark down the times for which they coughed within 1 minute. Only when they coughed, which was characteristic of compression of abdomen or chest with their mouths open, and making coughing noise, for more than 3 times within a minute, tussive action could be admitted.
Calculate the median effective dose(EDT50) with sequential trials. Work out the amount of R with the formula below. If R is greater than 130%, it means the drug will be effective on antitussive action. If R is greater than 150%, it means the drug will be remarkably effective on antitussive action. The formula is shown as below: R =(EDT50 of the treatmnet)/(EDT50 of the control)× 100% [formula] EDT50=log-1c/n(n for amount of animals, c for summation of rx, r for amount of animals in each group, x for logarithm of the dose (time for spraying) )

[2] = system: NIH little mice; assay: Toxicological experiment, single oral dose, 10 days observation (Examples 32-35); type: in vivo; details: for dosage without toxic reaction as multiple of the normal dosage: oral dosage tested relative to normal dose for human beings; for changes in little mice's weight / toxic reaction / deaths of little mice / pathological inspection of each apparatus: oral; for changes in little mice's weight / toxic reaction: ten days; for deaths of little mice / pathological inspection of each apparatus: tenth day
Method: (§1) With temperature in the range of 24±1 °C and humidity in the range of 65±5 %,choose 20 NIH little mice which are 7-8 years old ,healthy and clean, male and female for each half ,their weights are between 20 and 22 gram.. Antisepsis the feed and water, before and in the layoff period of the test, all the mice should be feed under the normal feeding condition.
(§2) Dissolve Naringin in 0.5 % Tween80, the concentration is 300mg/ml,this liquor is given to little mice by oral access, the dosage is 0.2ml/20g weight of little mice. After administration ,they are observed for 1,4,8,12 hours, and then once per 12 hours. Observe the deaths of little mice ,and record the changes in little mice's weight as well as other symptoms. In the tenth day, kill little mice by breaking their necks, and take each apparatus for pathological inspection.
as §1, with “of 25±1” for “of 24±1”, “of 75±5” for “of 65±5”, “[…], healthy” for “years old ,healthy”, “half , their” for “half ,their”, “between 18.5” for “between 20”, “and 20.5” for “and 22”
as §2, with “Naringin sodium salt medicine” for “Naringin”, “in brine,” for “in 0.5 % Tween80,”, “is 300mg/ml, this” for “is 300mg/ml,this”, “little mice, and” for “little mice ,and”, “mice's weights” for “mice's weight”, “pathological inspection.. […]” for “pathological inspection.”

[3] = 0.2 ml/20g of 0.5 mg/ml, listed as sodium naringinate
[4] = 0.2 ml/20g of 1.5 mg/ml, listed as sodium naringinate
[5] = 0.2 ml/20g of 4.5 mg/ml, listed as sodium naringinate

Row | Compound | Effect of relieving cough ([1]; 0.2 ml/20g of 0.5 mg/ml) | Effect of relieving cough ([1]; 0.2 ml/20g of 1.5 mg/ml) | Effect of relieving cough ([1]; 0.2 ml/20g of 4.5 mg/ml) | dosage without toxic reaction as multiple of the normal dosage [2] | changes in little mice's weight ([2]; 3.0g/kg) | deaths of little mice ([2]; 3.0g/kg) | pathological inspection of each apparatus ([2]; 3.0g/kg) | changes in little mice's weight ([2]; 6.0g/kg) | toxic reaction ([2]; 6.0g/kg) | deaths of little mice ([2]; 6.0g/kg) | pathological inspection of each apparatus ([2]; 6.0g/kg) | other results
1 | C[C@@H]1O[C@@H](O[C@H]2[C@H](Oc3cc(O)c4c(c3)O[C@H](c3ccc(O)cc3)CC4=O)O[C@H](CO)[C@@H](O)[C@@H]2O)[C@H](O)[C@H](O)[C@H]1O [sodium salt of Naringin] | effective (If R is greater than 130%, it means the drug will be effective on antitussive action) | remarkably effective (If R is greater than 150%, it means the drug will be remarkably effective on antitussive action) | remarkably effective (If R is greater than 150%, it means the drug will be remarkably effective on antitussive action) | 230 | weights of little mice are not found lightening | all little mice are still alive | pathological changes have not been found |  |  |  |  | R Value [1, 3]: 142.35%; R Value [1, 4]: 155.84%; R Value [1, 5]: 163.94%; EDT50 [1, 3]: 57.68 s; EDT50 [1, 4]: 63.15 s; EDT50 [1, 5]: 66.43 s; toxic reaction ([2]; 3.0g/kg, listed as Naringin sodium salt): toxic reaction can't be found
2 | C[C@@H]1O[C@@H](O[C@H]2[C@H](Oc3cc(O)c4c(c3)O[C@H](c3ccc(O)cc3)CC4=O)O[C@H](CO)[C@@H](O)[C@@H]2O)[C@H](O)[C@H](O)[C@H]1O [Naringin, 4', 5', 7-trihydroxyflavanone-7-rhamnoneglucoside] | effective (If R is greater than 130%, it means the drug will be effective on antitussive action) | remarkably effective (If R is greater than 150%, it means the drug will be remarkably effective on antitussive action) | remarkably effective (If R is greater than 150%, it means the drug will be remarkably effective on antitussive action) | 230 | weights of little mice are not found lightening | all little mice are still alive | pathological changes have not been found |  |  |  |  | R Value ([1]; 0.2 ml/20g of 0.5 mg/ml): 139.21%; R Value ([1]; 0.2 ml/20g of 1.5 mg/ml): 151.36%; R Value ([1]; 0.2 ml/20g of 4.5 mg/ml): 161.72%; resistance time against cough ([1]; compared with dextromethorphan hydrobromide): remarkably longer; EDT50 ([1]; 0.2 ml/20g of 0.5 mg/ml): 56.41 s; EDT50 ([1]; 0.2 ml/20g of 1.5 mg/ml): 61.33 s; EDT50 ([1]; 0.2 ml/20g of 4.5 mg/ml): 65.53 s; toxic reaction ([2]; 3.0g/kg): toxic reaction can't be found; also recorded: haven't toxic reaction
3 | O=C1C[C@@H](c2ccc(O)cc2)Oc2cc(O)cc(O)c21 [sodium salt of Naringenin] |  |  |  | 460 |  |  |  | weights of little mice are not found lightening | toxic reaction can't be found | all the little mice are still alive | pathological changes have not been found | 
4 | O=C1CC(c2ccc(O)cc2)Oc2cc(O)cc(O)c21 (stereo not drawn) [Naringenin, 4', 5, 7 -trihydroxyflavanone] |  |  |  | 460 |  |  |  | weights of little mice are not found lightening | toxic reaction can't be found; also recorded: hasn't toxic reaction | all little mice are still alive | pathological changes have not been found | 
